Data set [1] has as its system Fusobacterium nucleatum. In words: Antibacterial activity against Fusobacterium nucleatum ATCC 23726 assessed as bacterial growth inhibition incubated for 48 hrs by broth dilution susceptibility test. In kind it is functional.
The test system of data set [2] is MC-38. In words: Antiproliferative activity against mouse MC-38 cells assessed as inhibition of cell growth incubated for 48 hrs by CCK-8 assay. In kind it is functional, cell-based. The settings on record: MC-38, 48 h. Background: Tetrazolium assays rely on reduction of a dye to a coloured formazan, in cell work by metabolically active cells.
Data set [3] concerns HCT-116. The data set can be described thus: Antiproliferative activity against human HCT-116 cells assessed as inhibition of cell growth incubated for 48 hrs by CCK-8 assay. In kind it is functional, cell-based. The following applies: HCT-116, 48 h.
Data set [4] can be described thus: Cytotoxicity against HUVEC cells assessed as inhibition of cell growth incubated for 48 hrs by CCK-8 assay. In kind it is toxicity, cell-based. The following applies: human.
Data set [5] in a line: Cytotoxicity against human L02 cells assessed as inhibition of cell growth incubated for 48 hrs by CCK-8 assay. In kind it is toxicity, cell-based.
Data set [6] has as its system Fusobacterium nucleatum. The data set can be described thus: Antibacterial activity against Fusobacterium nucleatum ATCC 23726 assessed as bacterial growth inhibition at 4 ug/ml incubated for 72 hrs by turbidimeter analysis. It is filed as functional, organism-based. The following applies: dose 4.0 µg/ml.
The subject of data set [7] is Fusobacterium nucleatum. The data set can be described thus: Antibacterial activity against Fusobacterium nucleatum ATCC 23726 assessed as bacterial growth inhibition incubated for 72 hrs by turbidimeter analysis. It is filed as functional, organism-based.
Data set [8] has as its system Fusobacterium nucleatum. The data set can be described thus: Antibacterial activity against Fusobacterium nucleatum ATCC 23726 assessed as bacterial growth inhibition at 8 ug/ml incubated for 72 hrs by turbidimeter analysis relative to control. The following applies: dose 8 µg/ml. It is filed as functional. Further details: scale not given: the % may be the effect or the level left.

Data set [9] has as its system Fusobacterium nucleatum. The data set can be described thus: Antibiofilm activity against Fusobacterium nucleatum ATCC 23726 assessed as inhibition of biofilm formation incubated for 48 hrs by crystal violet staining based assay. It is filed as functional, organism-based. The following applies: dose 0.5-16 µg/ml.
In data set [10] the test system is Fusobacterium nucleatum. The data set can be described thus: Antibiofilm activity against Fusobacterium nucleatum ATCC 23726 assessed as inhibition of biofilm formation at 1 ug/ml incubated for 48 hrs by crystal violet staining based assay relative to control. In kind it is functional.
Data set [11] concerns Escherichia coli. The data set can be described thus: Antibacterial activity against Escherichia coli […] assessed as bacterial growth inhibition incubated for 48 hrs by broth dilution susceptibility test. It is filed as functional. A general note: In broth dilution the organism is exposed to a series of concentrations in liquid medium.
The test system of data set [12] is Enterococcus faecalis. In words: Antibacterial activity against Enterococcus faecalis ATCC 29212 assessed as bacterial growth inhibition incubated for 48 hrs by broth dilution susceptibility test. It is filed as functional.
Data set [13] relates to Staphylococcus aureus. The data set can be described thus: Antibacterial activity against Staphylococcus aureus ATCC 6538 assessed as bacterial growth inhibition incubated for 48 hrs by broth dilution susceptibility test. It is filed as functional.
The subject of data set [14] is Peptostreptococcus anaerobius. In words: Antibacterial activity against Peptostreptococcus anaerobius ATCC 27337 assessed as bacterial growth inhibition incubated for 48 hrs by broth dilution susceptibility test. In kind it is functional.
Data set [15] deals with Akkermansia muciniphila. In words: Antibacterial activity against Akkermansia muciniphila ATCC BAA-835 assessed as bacterial growth inhibition incubated for 48 hrs by broth dilution susceptibility test. In kind it is functional.
Data set [16] relates to Salmonella enterica subsp. enterica serovar Paratyphi B. The data set can be described thus: Antibacterial activity against Salmonella paratyphi B ATCC CMCC50094 assessed as bacterial growth inhibition incubated for 48 hrs by broth dilution susceptibility test. It is filed as functional.
Data set [17] relates to Shigella flexneri. In words: Antibacterial activity against Shigella flexneri ATCC 12022 assessed as bacterial growth inhibition incubated for 48 hrs by broth dilution susceptibility test. It is filed as functional.
The test system of data set [18] is Lactobacillus acidophilus. In words: Antibacterial activity against Lactobacillus acidophilus ATCC CGMCC 1.577 assessed as bacterial growth inhibition incubated for 48 hrs by broth dilution susceptibility test. It is filed as functional.
Data set [19] concerns Fusobacterium nucleatum. The data set can be described thus: Antibacterial activity against Fusobacterium nucleatum ATCC 23726 assessed as downregulation of NTR gene expression incubated for 48 hrs by RT-qPCR analysis. It is filed as functional, organism-based. Background: In qPCR the cycle at which signal appears reflects the starting amount.
In data set [20] the test system is Fusobacterium nucleatum. In words: Antibiofilm activity against Fusobacterium nucleatum ATCC 23726 assessed as downregulation of tnaA gene expression measured after 48 hrs by RT-qPCR analysis. It is filed as functional, organism-based.
Data set [21] concerns L02. In words: Downregulation of HPPD gene expression in human L02 cells at 10 to 50 uM incubated for 48 hrs by RT-qPCR analysis. In kind it is functional, cell-based. The following applies: dose 10-50 µM.
Data set [22] in a line: Acute toxicity in ICR mouse assessed as death rate at 1250 to 2592 mg/kg, po measured after 7 days. It is filed as organism-based. The settings on record: in vivo, dose 1250-2592 mg/kg, time 7 day, read-out: Activity.
Data set [23] is described as follows: Acute toxicity in po dosed ICR mouse assessed as animal death measured after 7 days. It is filed as organism-based. The settings on record: in vivo, time 7 day.
Data set [24] in a line: Acute toxicity in po dosed ICR mouse assessed as heart damage at 1500 mg/kg, po measured after 7 days by H and E staining based analysis. It is filed as organism-based. The following applies: in vivo, 168 h, time 7 day.
A short description of data set [25]: Acute toxicity in po dosed ICR mouse assessed as liver damage at 1500 mg/kg, po measured after 7 days by H and E staining based analysis. It is filed as organism-based. The settings on record: in vivo, 168 h, time 7 day.
Data set [26] is described as follows: Acute toxicity in po dosed ICR mouse assessed as spleen damage at 1500 mg/kg, po measured after 7 days by H and E staining based analysis. It is filed as organism-based. The following applies: in vivo, 168 h, time 7 day.
Data set [27] is described as follows: Acute toxicity in po dosed ICR mouse assessed as lung damage at 1500 mg/kg, po measured after 7 days by H and E staining based analysis. In kind it is organism-based. The settings on record: in vivo, 168 h, time 7 day.
Data set [28] is described as follows: Acute toxicity in po dosed ICR mouse assessed as kidney damage at 1500 mg/kg, po measured after 7 days by H and E staining based analysis. It is filed as organism-based. The following applies: in vivo, 168 h, time 7 day.
Data set [29] in a line: Metabolic stability in mouse liver microsomes assessed as half life at 1 uM incubated for 45 mins in presence of NADPH by LC-MS/MS analysis. In kind it is ADME, Microsome.
Data set [30] in a line: Drug metabolism assessed as NTR(unknown origin)-mediated metabolism at 10 mM incubated for 2 hrs in presence of NADH by LC-MS analysis. The following applies: bacteria, 10000 µM. In kind it is ADME.

Values after ≈ are worked out from the molar mass of the structure shown. Active and inactive are the calls of the source. The calls are words filed in the database; no cut-off is given here.

Broadly, the MIC50 is an inhibitory concentration at the 50% level, which refers to growth in some studies and to a panel of isolates in others. As for `Cc1cc(=O)oc2ccc(OC(=O)c3ccc([N+](=O)[O-])c(F)c3)cc12`, the MIC50 in [1] is greater than 64 µg/mL.

In the case of `O=C(CCc1ccc([N+](=O)[O-])cc1)Nc1ccon1`, the MIC50 in [1] is greater than 64 µg/mL.

`CS(=O)(=O)c1ccc(C(=O)C2C(=O)CCCC2=O)c(Cl)c1` [SULCOTRIONE]: the MIC50 in [1] is greater than 64 µg/mL.

As a reminder, the MIC90 is an inhibitory concentration at the 90% level, which refers to growth in some studies and to a panel of isolates in others. In general, IC50 refers to the concentration needed to halve the response being measured. The term inhibition denotes the relative decrease from the control value, in per cent. Broadly, the LD50 is the dose expected to kill half of the subjects tested. As a reminder, the half-life is how long it takes for the measured level to halve. As for `O=[N+]([O-])c1ccc(COc2ccc([N+](=O)[O-])c(Br)c2)o1`, the MIC50 is 2 µg/mL (≈ 5.83 µM) in data set [1]; 16 µg/mL (≈ 46.6 µM) in [11]; 64 µg/mL (≈ 187 µM) in [12]; 64 µg/mL (≈ 187 µM) in data set [13]; 32 µg/mL (≈ 93.3 µM) in [14]; greater than 64 µg/mL in [15]. For the same molecule, the MIC50 is greater than 64 µg/mL in data set [16], greater than 64 µg/mL in data set [17] and 64 µg/mL (≈ 187 µM) in [18]. Besides, the MIC90 in [1] came to 2 µg/mL (≈ 5.83 µM). For the same molecule, the IC50 in data set [2] amounted to 26 µM; in [3], 62 µM. In addition, the values for the IC50 at 48 h in [4] and in [5] were 16 µM and 60 µM, respectively. Moreover, the result in data set [6] and in [21] was Active. The Activity entry in data set [7] is “Dose-Dependent Effect”; in data set [8] it was roughly 100%; in [19] it was “Dose-Dependent Effect”; in data set [20], “Dose-Dependent Effect”; in data set [24], “Non-Toxic”; in data set [25] it was “Non-Toxic”. Also, the Activity result in [26], in data set [27] and in data set [28] was “Non-Toxic” each time. Moreover, the inhibition result in data set [9] was “Dose-Dependent Effect”. The inhibition at 1 µg/mL in [10] is greater than 50%. In addition, the mortality at 168 h in data set [22] is 0%. In data set [23], the LD50 at 168 h is greater than 2590 mg/kg. For the same molecule, the half-life at 1 µM in data set [29] came to 21.3 min. For the same molecule, in [30], the Drug metabolism result was “Metabolite_Detected”.

As to `O=C(Nc1ccon1)c1ccc([N+](=O)[O-])cc1I`, the MIC50 in data set [1] was greater than 64 µg/mL.

For `OC1(c2ccc(Cl)c(C(F)(F)F)c2)CCN(CCCC(c2ccc(F)cc2)c2ccc(F)cc2)CC1` [PENFLURIDOL], the MIC50 in data set [1] was 8 µg/mL (≈ 15.3 µM).

As to `O=C1OCCN1/N=C/c1ccc([N+](=O)[O-])o1` [FURAZOLIDONE], the MIC50 in [1] amounted to 16 µg/mL (≈ 71.1 µM).

In the case of `O=[N+]([O-])c1ccc(COc2ccc([N+](=O)[O-])c(C(F)(F)F)c2)o1`, the MIC50 is 4 µg/mL (≈ 12 µM) in data set [1]; 64 µg/mL (≈ 193 µM) in data set [11]; 64 µg/mL (≈ 193 µM) in data set [12]; 64 µg/mL (≈ 193 µM) in data set [13]; 32 µg/mL (≈ 96.3 µM) in data set [14]; greater than 64 µg/mL in data set [15]. Further, the MIC50 is 64 µg/mL (≈ 193 µM) in [16], greater than 64 µg/mL in [17] and greater than 64 µg/mL in data set [18]. Besides, the IC50 in data set [2] turned out to be 38 µM; in data set [3], 52 µM. In addition, the results for the 50% inhibitory concentration (IC50) at 48 h in data set [4] and in data set [5] were 9.6 µM and 21 µM, respectively. Besides, the result in data set [6] was Active. For the same molecule, the Activity result in data set [7] was “Dose-Dependent Effect”. In data set [9], the inhibition entry was “Dose-Dependent Effect”.

`Cc1cc(NC(=O)c2ccc(C(F)(F)F)cc2[N+](=O)[O-])on1`: in [1], the MIC50 is greater than 64 µg/mL.

As to `NC(=O)c1ccc(NC(=O)c2ccc(C(F)(F)F)cc2[N+](=O)[O-])cc1`, the MIC50 in data set [1] was greater than 64 µg/mL.

`O=C(NCc1ccncc1)c1ccc(C(F)(F)F)cc1[N+](=O)[O-]`: in data set [1], the MIC50 stood at 64 µg/mL (≈ 197 µM).

Turning to `O=C(Nc1ccon1)c1ccc([N+](=O)[O-])c(Br)c1`, in data set [1], the MIC50 was greater than 64 µg/mL.

For `O=C(Cn1cnc(=O)c2ccc(Cl)cc21)Nc1ccc([N+](=O)[O-])cc1Cl`, the MIC50 in [1] was determined as 64 µg/mL (≈ 163 µM).

Take `CC(C)(C)c1ccc(C(O)CCCN2CCC(C(O)(c3ccccc3)c3ccccc3)CC2)cc1` (stereo unspecified) [TERFENADINE]: the MIC50 in data set [1] amounted to 16 µg/mL (≈ 33.9 µM).

On to `O=C1NCCN1CCN1CCC(c2cn(-c3ccc(F)cc3)c3ccc(Cl)cc23)CC1` [SERTINDOLE], for which the MIC50 in [1] is 16 µg/mL (≈ 36.3 µM).

Take `Cc1ncc([N+](=O)[O-])n1C` [DIMETRIDAZOLE]: the MIC50 in data set [1] is 1 µg/mL (≈ 7.09 µM).

Source of the values: ChEMBL document CHEMBL5375955, “Discovery of New Fusobacterium nucleatum Inhibitors to Attenuate Migratory Capability of Colon Cancer Cells by the Drug Repositioning Strategy” (J Med Chem, 2023).
